Source: PMC3044726, “Identification of Human IKK-2 Inhibitors of Natural Origin (Part I): Modeling of the IKK-2 Kinase Domain, Virtual Screening and Activity Assays” (PLoS ONE, 2011)
pIC50: −log10 of the molar value. Where two headings read alike, the source gives them in different places.

Biological target: T1, hIKK-2 (Homo sapiens, UniProt O14920)
T1 construct: gene IKBKB
T1 sequence (O14920 1-756): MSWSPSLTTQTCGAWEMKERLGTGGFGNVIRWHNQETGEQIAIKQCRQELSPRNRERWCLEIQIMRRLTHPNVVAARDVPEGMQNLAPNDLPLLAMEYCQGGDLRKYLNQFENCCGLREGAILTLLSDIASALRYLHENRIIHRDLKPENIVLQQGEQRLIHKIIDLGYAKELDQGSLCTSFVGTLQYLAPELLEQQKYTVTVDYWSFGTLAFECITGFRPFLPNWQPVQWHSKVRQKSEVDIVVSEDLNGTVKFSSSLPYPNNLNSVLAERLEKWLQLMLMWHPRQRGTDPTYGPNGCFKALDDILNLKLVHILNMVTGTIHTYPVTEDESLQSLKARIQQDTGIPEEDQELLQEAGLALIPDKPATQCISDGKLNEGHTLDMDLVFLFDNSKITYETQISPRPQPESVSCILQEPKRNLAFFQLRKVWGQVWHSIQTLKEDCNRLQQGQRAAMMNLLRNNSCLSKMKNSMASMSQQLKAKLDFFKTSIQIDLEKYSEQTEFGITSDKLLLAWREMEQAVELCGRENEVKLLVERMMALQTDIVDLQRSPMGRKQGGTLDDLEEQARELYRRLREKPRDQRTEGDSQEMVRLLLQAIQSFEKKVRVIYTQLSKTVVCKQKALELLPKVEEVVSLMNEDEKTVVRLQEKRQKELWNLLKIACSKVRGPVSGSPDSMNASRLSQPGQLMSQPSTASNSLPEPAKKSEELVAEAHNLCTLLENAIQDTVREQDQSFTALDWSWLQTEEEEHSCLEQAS
Assay: K-LISA IKKβ ELISA kinase assay with GST-IκBα substrate
Assay type: biochemical

Structure (SMILES)	pIC50 (read-out: IC50)	pIC50
OC[C@@H]1CCCN2CCCC[C@H]12 [ZINC01669260, lupinine]	2.48	–
COCc1c(CN)cnc(C)c1N [ZINC03683886]	–	2.68
CCOc1ccc2nc3cc(N)ccc3c(N)c2c1 [ZINC03871389, ethacridine]	3.74	–
